Results published in ChEMBL document CHEMBL6134868, “Novel Aryl Sulfonium Modification on Vancomycin to Tackle MRSA and VRE In Vitro and In Vivo through Dual Enhanced Cell-Wall and Membrane Inhibition” (J Med Chem, 2025).
Converted amounts (≈) assume the structure as drawn.

Assays:
Type in all cases: functional
Details in all cases: time 16-24 hrs
[1] = test system: Staphylococcus aureus; assay: Antibacterial activity against methicillin-resistant Staphylococcus aureus USA300 LAC incubated for 16 to 24 hrs by broth microdilution assay
[2] = test system: Enterococcus faecium; assay: Antibacterial activity against vancomycin-resistant Enterococcus faecium Efm-HS-vb01 harboring VanB phenotype incubated for 16 to 24 hrs by broth microdilution assay
[3] = test system: Enterococcus faecium; assay: Antibacterial activity against vancomycin-resistant Enterococcus faecium Efm-HS-0649 harboring VanA phenotype incubated for 16 to 24 hrs by broth microdilution assay
[4] = test system: Acinetobacter baumannii; assay: Antibacterial activity against carbapenem-resistant Acinetobacter baumannii CRAB-1 clinical isolate incubated for 16 to 24 hrs by broth microdilution assay
[5] = test system: Pseudomonas aeruginosa; assay: Antibacterial activity against Pseudomonas aeruginosa PAO1 incubated for 16 to 24 hrs by broth microdilution assay
[6] = test system: Enterococcus faecium; assay: Antibacterial activity against vancomycin-resistant Enterococcus faecium Efm-HS-vb02 harboring VanB phenotype incubated for 16 to 24 hrs by broth microdilution assay
[7] = test system: Escherichia coli; assay: Antibacterial activity against Escherichia coli AB1157 incubated for 16 to 24 hrs by broth microdilution assay
[8] = test system: Staphylococcus aureus; assay: Antibacterial activity against vancomycin-intermediate Staphylococcus aureus Mu50 incubated for 16 to 24 hrs by broth microdilution assay
[9] = test system: Klebsiella pneumoniae; assay: Antibacterial activity against Klebsiella pneumoniae KP-1 incubated for 16 to 24 hrs by broth microdilution assay
[10] = test system: Enterococcus faecium; assay: Antibacterial activity against vancomycin-resistant Enterococcus faecium Efm-HS-08257 harboring VanM phenotype incubated for 16 to 24 hrs by broth microdilution assay
[11] = test system: Acinetobacter baumannii; assay: Antibacterial activity against Acinetobacter baumannii ATCC19606 incubated for 16 to 24 hrs by broth microdilution assay

| Compound | MIC [1] [µg/mL] | MIC [2] [µg/mL] | MIC [3] [µg/mL] | MIC [4] [µg/mL] | MIC [5] [µg/mL] | MIC [6] [µg/mL] | MIC [7] [µg/mL] | MIC [8] [µg/mL] | MIC [9] [µg/mL] | MIC [10] [µg/mL] | MIC [11] [µg/mL] |
| --- | --- | --- | --- | --- | --- | --- | --- | --- | --- | --- | --- |
| CN[C@H](CC(C)C)C(=O)N[C@H]1C(=O)N[C@@H](CC(N)=O)C(=O)N[C@H]2C(=O)N[C@H]3C(=O)N[C@H](C(=O)N[C@H](C(=O)NCCC[S+](C)CC(O)COc4ccccc4Cl)c4cc(O)cc(O)c4-c4cc3ccc4O)[C@H](O)c3ccc(c(Cl)c3)Oc3cc2cc(c3O[C@@H]2O[C@H](CO)[C@@H](O)[C@H](O)[C@H]2O[C@H]2C[C@](C)(N)[C@H](O)[C@H](C)O2)Oc2ccc(cc2Cl)[C@H]1O.O=C([O-])C(F)(F)F (some centres not stated) | 0.25 | 8 | 16 | > 128 | > 128 | 2 | 16 | 1 | > 128 | 8 | 64 |
| CN[C@H](CC(C)C)C(=O)N[C@H]1C(=O)N[C@@H](CC(N)=O)C(=O)N[C@H]2C(=O)N[C@H]3C(=O)N[C@H](C(=O)N[C@H](C(=O)O)c4cc(O)c(CNCCC[S+](C)C[C@@H](O)COc5ccccc5)c(O)c4-c4cc3ccc4O)[C@H](O)c3ccc(c(Cl)c3)Oc3cc2cc(c3O[C@@H]2O[C@H](CO)[C@@H](O)[C@H](O)[C@H]2O[C@H]2C[C@](C)(N)[C@H](O)[C@H](C)O2)Oc2ccc(cc2Cl)[C@H]1O.O=C([O-])C(F)(F)F (some centres not stated) | 0.5 | 2 | > 128 | > 128 | > 128 | 4 | 16 | 4 | > 128 | 128 | 128 |
| CN[C@H](CC(C)C)C(=O)N[C@H]1C(=O)N[C@@H](CC(N)=O)C(=O)N[C@H]2C(=O)N[C@H]3C(=O)N[C@H](C(=O)N[C@H](C(=O)NCCC[S+](C)CC(O)CCc4ccccc4)c4cc(O)cc(O)c4-c4cc3ccc4O)[C@H](O)c3ccc(c(Cl)c3)Oc3cc2cc(c3O[C@@H]2O[C@H](CO)[C@@H](O)[C@H](O)[C@H]2O[C@H]2C[C@](C)(N)[C@H](O)[C@H](C)O2)Oc2ccc(cc2Cl)[C@H]1O.O=C([O-])C(F)(F)F (some centres not stated) | 0.5 | 32 | 32 | > 128 | 128 | 2 | 32 | 2 | > 128 | 32 | > 128 |
| CN[C@H](CC(C)C)C(=O)N[C@H]1C(=O)N[C@@H](CC(N)=O)C(=O)N[C@H]2C(=O)N[C@H]3C(=O)N[C@H](C(=O)N[C@H](C(=O)O)c4cc(O)c(CNCCC[S+](C)C[C@H](O)COc5ccccc5)c(O)c4-c4cc3ccc4O)[C@H](O)c3ccc(c(Cl)c3)Oc3cc2cc(c3O[C@@H]2O[C@H](CO)[C@@H](O)[C@H](O)[C@H]2O[C@H]2C[C@](C)(N)[C@H](O)[C@H](C)O2)Oc2ccc(cc2Cl)[C@H]1O.O=C([O-])C(F)(F)F (some centres not stated) | 2 | 4 | > 128 | > 128 | > 128 | 8 | 64 | 16 | > 128 | 128 | > 128 |
| CN[C@H](CC(C)C)C(=O)N[C@H]1C(=O)N[C@@H](CC(N)=O)C(=O)N[C@H]2C(=O)N[C@H]3C(=O)N[C@H](C(=O)N[C@H](C(=O)NCCCSCC(O)COc4ccc(-c5ccc(C(F)(F)F)cc5)cc4)c4cc(O)cc(O)c4-c4cc3ccc4O)[C@H](O)c3ccc(c(Cl)c3)Oc3cc2cc(c3O[C@@H]2O[C@H](CO)[C@@H](O)[C@H](O)[C@H]2O[C@H]2C[C@](C)(N)[C@H](O)[C@H](C)O2)Oc2ccc(cc2Cl)[C@H]1O (some centres not stated) | 1 (≈ 0.55 µM) | 4 (≈ 2.2 µM) | 4 (≈ 2.2 µM) | > 128 | > 128 | 2 (≈ 1.1 µM) | > 128 | 1 (≈ 0.55 µM) | > 128 | 2 (≈ 1.1 µM) | > 128 |
| CN[C@H](CC(C)C)C(=O)N[C@H]1C(=O)N[C@@H](CC(N)=O)C(=O)N[C@H]2C(=O)N[C@H]3C(=O)N[C@H](C(=O)N[C@H](C(=O)NCCC[S+](C)CC(O)COc4ccc(-c5ccc(C(F)(F)F)cc5)cc4)c4cc(O)cc(O)c4-c4cc3ccc4O)[C@H](O)c3ccc(c(Cl)c3)Oc3cc2cc(c3O[C@@H]2O[C@H](CO)[C@@H](O)[C@H](O)[C@H]2O[C@H]2C[C@](C)(N)[C@H](O)[C@H](C)O2)Oc2ccc(cc2Cl)[C@H]1O.O=C([O-])C(F)(F)F (some centres not stated) | 0.5 | 4 | 2 | 128 | > 128 | 0.5 | 16 | 0.25 | > 128 | 1 | 32 |
| CN[C@H](CC(C)C)C(=O)N[C@H]1C(=O)N[C@@H](CC(N)=O)C(=O)N[C@H]2C(=O)N[C@H]3C(=O)N[C@H](C(=O)N[C@H](C(=O)NCCC[S+](C)CC(O)COc4ccc(Br)cc4)c4cc(O)cc(O)c4-c4cc3ccc4O)[C@H](O)c3ccc(c(Cl)c3)Oc3cc2cc(c3O[C@@H]2O[C@H](CO)[C@@H](O)[C@H](O)[C@H]2O[C@H]2C[C@](C)(N)[C@H](O)[C@H](C)O2)Oc2ccc(cc2Cl)[C@H]1O.O=C([O-])C(F)(F)F (some centres not stated) | ≤ 0.063 | 4 | 8 | 64 | 128 | 4 | 16 | 1 | > 128 | 4 | 32 |
| CN[C@H](CC(C)C)C(=O)N[C@H]1C(=O)N[C@@H](CC(N)=O)C(=O)N[C@H]2C(=O)N[C@H]3C(=O)N[C@H](C(=O)N[C@H](C(=O)O)c4cc(O)c(CNCCC[S+](C)CC(O)COc5ccccc5)c(O)c4-c4cc3ccc4O)[C@H](O)c3ccc(c(Cl)c3)Oc3cc2cc(c3O[C@@H]2O[C@H](CO)[C@@H](O)[C@H](O)[C@H]2O[C@H]2C[C@](C)(N)[C@H](O)[C@H](C)O2)Oc2ccc(cc2Cl)[C@H]1O.O=C([O-])C(F)(F)F (some centres not stated) | 0.5 | 2 | 128 | 128 | > 128 | 4 | 32 | 4 | > 128 | 64 | 128 |
| CN[C@H](CC(C)C)C(=O)N[C@H]1C(=O)N[C@@H](CC(N)=O)C(=O)N[C@H]2C(=O)N[C@H]3C(=O)N[C@H](C(=O)N[C@H](C(=O)NCCC[S+](C)CC(O)COc4ccc(-c5ccc(Cl)cc5)cc4)c4cc(O)cc(O)c4-c4cc3ccc4O)[C@H](O)c3ccc(c(Cl)c3)Oc3cc2cc(c3O[C@@H]2O[C@H](CO)[C@@H](O)[C@H](O)[C@H]2O[C@H]2C[C@](C)(N)[C@H](O)[C@H](C)O2)Oc2ccc(cc2Cl)[C@H]1O.O=C([O-])C(F)(F)F (some centres not stated) | ≤ 0.063 | 4 | 2 | 64 | > 128 | 0.5 | 16 | 0.25 | > 128 | 2 | 16 |
| CN[C@H](CC(C)C)C(=O)N[C@H]1C(=O)N[C@@H](CC(N)=O)C(=O)N[C@H]2C(=O)N[C@H]3C(=O)N[C@H](C(=O)N[C@H](C(=O)O)c4cc(O)c(CNCCCSCC(O)COc5ccc(-c6ccc(C(F)(F)F)cc6)cc5)c(O)c4-c4cc3ccc4O)[C@H](O)c3ccc(c(Cl)c3)Oc3cc2cc(c3O[C@@H]2O[C@H](CO)[C@@H](O)[C@H](O)[C@H]2O[C@H]2C[C@](C)(N)[C@H](O)[C@H](C)O2)Oc2ccc(cc2Cl)[C@H]1O (some centres not stated) | 0.125 (≈ 0.0677 µM) | 4 (≈ 2.17 µM) | 4 (≈ 2.17 µM) | 128 (≈ 69.3 µM) | > 128 | 2 (≈ 1.08 µM) | > 128 | 1 (≈ 0.541 µM) | > 128 | 2 (≈ 1.08 µM) | 32 (≈ 17.3 µM) |
| CC(C)C[C@H](C(=O)N[C@H]1C(=O)N[C@@H](CC(N)=O)C(=O)N[C@H]2C(=O)N[C@H]3C(=O)N[C@H](C(=O)N[C@H](C(=O)O)c4cc(O)cc(O)c4-c4cc3ccc4O)[C@H](O)c3ccc(c(Cl)c3)Oc3cc2cc(c3O[C@@H]2O[C@H](CO)[C@@H](O)[C@H](O)[C@H]2O[C@H]2C[C@](C)(N)[C@H](O)[C@H](C)O2)Oc2ccc(cc2Cl)[C@H]1O)N(C)CCC[S+](C)C[C@H](O)COc1ccccc1.O=C([O-])C(F)(F)F (some centres not stated) | 2 | 64 | > 128 | > 128 | > 128 | 32 | > 128 | 8 | > 128 | 128 | > 128 |
| CN[C@H](CC(C)C)C(=O)N[C@H]1C(=O)N[C@@H](CC(N)=O)C(=O)N[C@H]2C(=O)N[C@H]3C(=O)N[C@H](C(=O)N[C@H](C(=O)O)c4cc(O)c(CNCCC[S+](C)CC(O)COc5ccc(-c6ccc(Cl)cc6)cc5)c(O)c4-c4cc3ccc4O)[C@H](O)c3ccc(c(Cl)c3)Oc3cc2cc(c3O[C@@H]2O[C@H](CO)[C@@H](O)[C@H](O)[C@H]2O[C@H]2C[C@](C)(N)[C@H](O)[C@H](C)O2)Oc2ccc(cc2Cl)[C@H]1O.O=C([O-])C(F)(F)F (some centres not stated) | ≤ 0.063 | ≤ 0.063 | 0.5 | 16 | > 128 | ≤ 0.063 | 8 | ≤ 0.063 | 128 | 2 | 16 |
